Source: patent US5747466A, “3-deoxy-3-descladinose derivatives of erythromycins A and B” (Abbott Laboratories, priority 1996, dated 1998)
Read-outs that look alike come from different tables or passages of the source.

What was measured:
Experiment in all cases: In vitro antibacterial activity (MIC), agar dilution
Type in all cases: cell-based
[1] = test system: STAPHYLOCOCCUS AUREUS A5177; details: S. aureus A5177; BHI agar, 35-37 °C, 20-24 h
[2] = test system: STREPTOCOCCUS PYOGENES 930; details: S. pyogenes 930; BHI agar, 35-37 °C, 20-24 h
[3] = test system: STREPTOCOCCUS PYOGENES PIU 2548; details: S. pyogenes PIU 2548; BHI agar, 35-37 °C, 20-24 h
ESCHERICHIA COLI JUHL = test system: ESCHERICHIA COLI JUHL
[4] = test system: ENTEROBACTER AEROGENES ATCC 13048; details: E. aerogenes ATCC 13048; BHI agar, 35-37 °C, 20-24 h
[5] = test system: PSEUDOMONAS AERUGINOSA BMH10; details: P. aeruginosa BMH10; BHI agar, 35-37 °C, 20-24 h
[6] = test system: PSEUDOMONAS AERUGINOSA K799/WT; details: P. aeruginosa K799/WT; BHI agar, 35-37 °C, 20-24 h
PSEUDOMONAS CEPACIA 296I = details: P. cepacia 296I; BHI agar, 35-37 °C, 20-24 h
[7] = test system: PSEUDOMONAS AERUGINOSA DPHD-5263; details: P. aeruginosa DPHD-5263; BHI agar, 35-37 °C, 20-24 h
[8] = E. coli JUHL, BHI agar, 35-37 °C, 20-24 h

Structure (SMILES) | minimum inhibitory concentration (MIC) [1] | minimum inhibitory concentration (MIC) [2] | minimum inhibitory concentration (MIC) [3] | minimum inhibitory concentration (MIC) (ESCHERICHIA COLI JUHL; [8]) | minimum inhibitory concentration (MIC) [4] | minimum inhibitory concentration (MIC) [5] | minimum inhibitory concentration (MIC) [6] | minimum inhibitory concentration (MIC) (PSEUDOMONAS CEPACIA 296I) | minimum inhibitory concentration (MIC) [7] | minimum inhibitory concentration (MIC) (ESCHERICHIA COLI JUHL)
CC[C@H]1OC(=O)[C@H](C)C[C@H](C)[C@@H](O[C@@H]2O[C@H](C)C[C@H](N(C)C)[C@H]2O)[C@](C)(OC)C[C@@H](C)C(=NOCOCCOC)[C@H](C)[C@@H](O)[C@]1(C)O [Ex. 8] | 1.56 | > 100 | 6.2 | 50 | > 100 | 100 | 100 | > 100 | 100 | –
CC[C@H]1OC(=O)[C@H](C)C[C@H](C)[C@@H](O[C@@H]2O[C@H](C)C[C@H](N(C)C)[C@H]2O)[C@](C)(OC)C[C@@H](C)C(=O)[C@H](C)[C@H]2N(CCc3ccc(Oc4ccccc4)cc3)C(=O)O[C@]12C [Ex. 5] | 6.2 | 6.2 | 3.1 | – | > 100 | > 100 | > 100 | 100 | > 100 | –
CC[C@H]1OC(=O)[C@H](C)[C@@H](O[C@H]2C[C@@](C)(OC)[C@@H](O)[C@H](C)O2)[C@H](C)[C@@H](O[C@@H]2O[C@H](C)C[C@H](N(C)C)[C@H]2O)[C@](C)(O)C[C@@H](C)C(=O)[C@H](C)[C@@H](O)[C@]1(C)O [Ery A, Erythromycin A, reference compound] | 1.56 | > 100 | 6.2 | – | > 100 | 100 | 100 | > 100 | 100 | 50
CC[C@H]1OC(=O)[C@H](C)C[C@H](C)[C@@H](O[C@@H]2O[C@H](C)C[C@H](N(C)C)[C@H]2O)[C@](C)(OC)C[C@@H](C)C(=O)[C@H](C)[C@H]2OC(=O)O[C@@]21C [Ex. 3] | 3.1 | > 100 | 0.78 | > 100 | > 100 | > 100 | > 100 | > 100 | > 100 | –
CC[C@H]1OC(=O)[C@H](C)C[C@H](C)[C@@H](O[C@@H]2O[C@H](C)C[C@H](N(C)C)[C@H]2O)[C@](C)(OC)C[C@@H](C)C(=NOC)[C@H](C)[C@@H](O)[C@]1(C)O [Ex. 6] | 6.2 | > 100 | 0.78 | – | > 100 | > 100 | > 100 | 12.5 | 50 | –
CC[C@H]1OC(=O)[C@H](C)C[C@H](C)[C@@H](O[C@@H]2O[C@H](C)C[C@H](N(C)C)[C@H]2O)[C@](C)(OC)C[C@@H](C)C(=O)[C@H](C)[C@H]2N(CCCCc3ccccc3)C(=O)O[C@]12C [Ex. 4] | 1.56 | 6.2 | 0.2 | > 100 | > 100 | > 100 | 100 | – | 100 | –
CC[C@H]1OC(=O)[C@H](C)C[C@H](C)[C@@H](O[C@@H]2O[C@H](C)C[C@H](N(C)C)[C@H]2O)[C@](C)(OC)C[C@@H](C)C(=O)[C@H](C)[C@@H](O)[C@]1(C)O [Ex. 1] | 25 | > 100 | 3.1 | > 100 | > 100 | > 100 | > 100 | > 100 | > 100 | –
CC[C@H]1OC(=O)[C@H](C)C[C@H](C)[C@@H](O[C@@H]2O[C@H](C)C[C@H](N(C)C)[C@H]2O)[C@](C)(OC)C[C@@H](C)C(=NO)[C@H](C)[C@@H](O)[C@]1(C)O [Ex. 2] | 25 | > 100 | 0.56 | > 100 | > 100 | > 100 | > 100 | > 100 | > 100 | –
